{"source": "ChEMBL document CHEMBL4219183", "about": "“Novel purine benzimidazoles as antimicrobial agents by regulating ROS generation and targeting clinically resistant Staphylococcus aureus DNA groove” (Bioorg Med Chem Lett, 2018)", "key": {"DNA [1]": {"test_system": "DNA", "experiment": "Binding affinity to Staphylococcus aureus genomic DNA at pH 7.4 at 294 K by fluorescence quenching analysis", "format": "nucleic-acid assay"}, "HeLa": {"test_system": "HeLa", "experiment": "Induction of ROS generation in human HeLa cells at 6.25 to 50 uM by DCFH-DA staining based fluorescence microscopic method", "format": "cell-based"}, "DNA [2]": {"test_system": "DNA", "experiment": "Binding affinity to Staphylococcus aureus genomic DNA assessed as modified Stern-Volmer quenching constant at pH 7.4 at 314 K by fluorescence quenching analysis", "format": "nucleic-acid assay"}, "DNA [3]": {"test_system": "DNA", "experiment": "Binding affinity to Staphylococcus aureus genomic DNA assessed as modified Stern-Volmer quenching constant at pH 7.4 at 304 K by fluorescence quenching analysis", "format": "nucleic-acid assay"}, "Staphylococcus aureus [4]": {"test_system": "Staphylococcus aureus", "experiment": "Antibacterial activity against methicillin-resistant Staphylococcus aureus N315 after 24 hrs by two fold serial dilution method", "format": "functional", "settings": "N315, 24 h"}, "[5]": {"experiment": "Cytotoxicity against human A549 cells assessed as cell viability at <500 ug/ml after 48 hrs by MTT assay relative to control", "format": "cell-based", "settings": "read-out: Activity"}, "DNA [6]": {"test_system": "DNA", "experiment": "Binding affinity to Staphylococcus aureus genomic DNA by UV absorption spectral analysis", "format": "nucleic-acid assay"}, "DNA [7]": {"test_system": "DNA", "experiment": "Binding affinity to Staphylococcus aureus genomic DNA assessed as gibbs free energy change at 304 K", "format": "nucleic-acid assay"}, "Staphylococcus aureus [8]": {"test_system": "Staphylococcus aureus", "experiment": "Antibacterial activity against Staphylococcus aureus after 24 hrs by two fold serial dilution method", "format": "functional"}, "DNA [9]": {"test_system": "DNA", "experiment": "Binding affinity to Staphylococcus aureus genomic DNA assessed as hyperchromic shift at 2.5 to 20 x 10^-6mol/L by UV absorption spectral analysis", "format": "nucleic-acid assay"}, "DNA [10]": {"test_system": "DNA", "experiment": "Binding affinity to Staphylococcus aureus genomic DNA assessed as change in entropy at 304 K", "format": "nucleic-acid assay"}, "Pseudomonas aeruginosa [11]": {"test_system": "Pseudomonas aeruginosa", "experiment": "Antibacterial activity against Pseudomonas aeruginosa after 24 hrs by two fold serial dilution method", "format": "functional"}, "Candida albicans [12]": {"test_system": "Candida albicans", "experiment": "Antifungal activity against Candida albicans after 24 hrs by two fold serial dilution method", "format": "functional"}, "Enterococcus faecalis": {"test_system": "Enterococcus faecalis", "experiment": "Antibacterial activity against Enterococcus faecalis after 24 hrs by two fold serial dilution method", "format": "functional"}, "Klebsiella pneumoniae": {"test_system": "Klebsiella pneumoniae", "experiment": "Antibacterial activity against Klebsiella pneumoniae after 24 hrs by two fold serial dilution method", "format": "functional"}, "DNA [13]": {"test_system": "DNA", "experiment": "Binding affinity to Staphylococcus aureus genomic DNA assessed as modified Stern-Volmer quenching constant at pH 7.4 at 294 K by fluorescence quenching analysis", "format": "nucleic-acid assay"}, "DNA [14]": {"test_system": "DNA", "experiment": "Binding affinity to Staphylococcus aureus genomic DNA assessed as change in enthalpy at 304 K", "format": "nucleic-acid assay"}, "Escherichia coli [15]": {"test_system": "Escherichia coli", "experiment": "Antibacterial activity against Escherichia coli ATCC 25922 after 24 hrs by two fold serial dilution method", "format": "functional", "settings": "ATCC 25922, 24 h"}, "Escherichia coli [16]": {"test_system": "Escherichia coli", "experiment": "Antibacterial activity against Escherichia coli after 24 hrs by two fold serial dilution method", "format": "functional"}, "Aspergillus fumigatus": {"test_system": "Aspergillus fumigatus", "experiment": "Antifungal activity against Aspergillus fumigatus after 24 hrs by two fold serial dilution method", "format": "functional"}, "Acinetobacter baumannii": {"test_system": "Acinetobacter baumannii", "experiment": "Antibacterial activity against Acinetobacter baumannii after 24 hrs by two fold serial dilution method", "format": "functional"}, "DNA [17]": {"test_system": "DNA", "experiment": "Binding affinity to Staphylococcus aureus genomic DNA at pH 7.4 at 314 K by fluorescence quenching analysis", "format": "nucleic-acid assay"}, "DNA [18]": {"test_system": "DNA", "experiment": "Inhibition of neutral red binding to Staphylococcus aureus genomic DNA up to 20 x 10^-6mol/L by UV absorption spectral analysis", "format": "nucleic-acid assay"}, "DNA [19]": {"test_system": "DNA", "experiment": "Binding affinity to Staphylococcus aureus genomic DNA assessed as gibbs free energy change at 314 K", "format": "nucleic-acid assay"}, "Staphylococcus aureus [20]": {"test_system": "Staphylococcus aureus", "experiment": "Antibacterial activity against Staphylococcus aureus ATCC 29213 after 24 hrs by two fold serial dilution method", "format": "functional", "settings": "ATCC 29213, 24 h"}, "DNA [21]": {"test_system": "DNA", "experiment": "Binding affinity to Staphylococcus aureus genomic DNA assessed as iodide quenching constant at pH 7.4 by fluorescence quenching analysis (reference value: 28.74 L/mol)", "format": "nucleic-acid assay"}, "DNA [22]": {"test_system": "DNA", "experiment": "Binding affinity to Staphylococcus aureus genomic DNA assessed as gibbs free energy change at 294 K", "format": "nucleic-acid assay"}, "Candida tropicalis": {"test_system": "Candida tropicalis", "experiment": "Antifungal activity against Candida tropicalis after 24 hrs by two fold serial dilution method", "format": "functional"}, "Candida parapsilosis": {"test_system": "Candida parapsilosis", "experiment": "Antifungal activity against Candida parapsilosis ATCC 22019 after 24 hrs by two fold serial dilution method", "format": "functional", "settings": "ATCC 22019, 24 h"}, "DNA [23]": {"test_system": "DNA", "experiment": "Binding affinity to Staphylococcus aureus genomic DNA at pH 7.4 at 304 K by fluorescence quenching analysis", "format": "nucleic-acid assay"}, "Candida albicans [24]": {"test_system": "Candida albicans", "experiment": "Antifungal activity against Candida albicans ATCC 90023 after 24 hrs by two fold serial dilution method", "format": "functional", "settings": "ATCC 90023, 24 h"}, "Staphylococcus aureus [25]": {"test_system": "Staphylococcus aureus", "experiment": "Antibacterial activity against Staphylococcus aureus ATCC 25923 after 24 hrs by two fold serial dilution method", "format": "functional", "settings": "ATCC 25923, 24 h"}, "Staphylococcus aureus [26]": {"test_system": "Staphylococcus aureus", "experiment": "Potency index, ratio of norfloxacin MIC to compound MIC for Staphylococcus aureus", "format": "functional"}, "Pseudomonas aeruginosa [27]": {"test_system": "Pseudomonas aeruginosa", "experiment": "Antibacterial activity against Pseudomonas aeruginosa ATCC 27853 after 24 hrs by two fold serial dilution method", "format": "functional", "settings": "ATCC 27853, 24 h"}}, "note": "The source made the active and inactive calls. The rule behind the calls is not given here."}
{"smiles": "CCCCCCn1c(Cn2cnc3c(N4CCOCC4)ncnc32)nc2ccccc21", "values": [{"measurement": "KSV", "setting": "DNA [1]", "value": 1.87, "unit": "×10⁴ L/mol"}, {"measurement": "Activity", "setting": "HeLa", "value": "Non-Toxic"}, {"measurement": "Ka", "setting": "DNA [2]", "value": 1.73, "unit": "×10⁴ L/mol"}, {"measurement": "Ka", "setting": "DNA [3]", "value": 2.33, "unit": "×10⁴ L/mol"}, {"measurement": "MIC", "setting": "Staphylococcus aureus [4]", "value": 16, "unit": "µg/mL"}, {"measurement": "viability at 48 h", "setting": "[5]", "value": "> 85", "unit": "%"}, {"measurement": "K", "setting": "DNA [6]", "value": 4.92, "unit": "×10⁵ L/mol"}, {"measurement": "deltaG", "setting": "DNA [7]", "value": -6.13, "unit": "kcal/mol"}, {"measurement": "MIC", "setting": "Staphylococcus aureus [8]", "value": 4, "unit": "µg/mL"}, {"measurement": "Activity", "setting": "DNA [9]", "value": "Active"}, {"measurement": "deltaS", "setting": "DNA [10]", "value": -13.6, "unit": "J/mol.K"}, {"measurement": "MIC", "setting": "Pseudomonas aeruginosa [11]", "value": 64, "unit": "µg/mL"}, {"measurement": "MIC80", "setting": "Candida albicans [12]", "value": 32, "unit": "µg/mL"}, {"measurement": "MIC", "setting": "Enterococcus faecalis", "value": 128, "unit": "µg/mL"}, {"measurement": "MIC", "setting": "Klebsiella pneumoniae", "value": 64, "unit": "µg/mL"}, {"measurement": "Ka", "setting": "DNA [13]", "value": 3.76, "unit": "×10⁴ L/mol"}, {"measurement": "deltaH", "setting": "DNA [14]", "value": -7.12, "unit": "kcal/mol"}, {"measurement": "MIC", "setting": "Escherichia coli [15]", "value": 8, "unit": "µg/mL"}, {"measurement": "MIC", "setting": "Escherichia coli [16]", "value": 128, "unit": "µg/mL"}, {"measurement": "MIC80", "setting": "Aspergillus fumigatus", "value": 128, "unit": "µg/mL"}, {"measurement": "MIC", "setting": "Acinetobacter baumannii", "value": 64, "unit": "µg/mL"}, {"measurement": "KSV", "setting": "DNA [17]", "value": 1.21, "unit": "×10⁴ L/mol"}, {"measurement": "inhibition", "setting": "DNA [18]", "value": "inactive"}, {"measurement": "deltaG", "setting": "DNA [19]", "value": -6.09, "unit": "kcal/mol"}, {"measurement": "MIC", "setting": "Staphylococcus aureus [20]", "value": 512, "unit": "µg/mL"}, {"measurement": "KSV", "setting": "DNA [21]", "value": 78.2, "unit": "L/mol"}, {"measurement": "deltaG", "setting": "DNA [22]", "value": -6.16, "unit": "kcal/mol"}, {"measurement": "MIC80", "setting": "Candida tropicalis", "value": 64, "unit": "µg/mL"}, {"measurement": "MIC80", "setting": "Candida parapsilosis", "value": 128, "unit": "µg/mL"}, {"measurement": "KSV", "setting": "DNA [23]", "value": 1.52, "unit": "×10⁴ L/mol"}, {"measurement": "MIC80", "setting": "Candida albicans [24]", "value": 32, "unit": "µg/mL"}, {"measurement": "MIC", "setting": "Staphylococcus aureus [25]", "value": 64, "unit": "µg/mL"}, {"measurement": "Ratio", "setting": "Staphylococcus aureus [26]", "value": 16}, {"measurement": "MIC", "setting": "Pseudomonas aeruginosa [27]", "value": 16, "unit": "µg/mL"}]}
